Here are results for four molecules from US20060229368A1, “MEDICAL APPLICATION OF OXIDIZED MONOTERPENES” (priority 2001, published 2006).

SMILES strings stand for the structures.

Assay [1] relates to A. niger. The assay can be described thus: agar diffusion-disk technique, halo formation (fungal strains). The settings on record: for re-growth around the formulation: A. niger, 96 hours after inhibition; for activity against A. niger: formulation at 0.5%, after 7 days. The format is cell-based, Aspergillus niger. On the procedure:
This technique is explained in R. K. Dart, Microbiology for the Analytic Chemist, The Royal Society of Chemists, 1996, which is incorporated herein by reference. […] Anti-bacterial activity was detected by showing a distinguished halo around the disk previously wetted with the formulation. Halo formation was measured with a caliper and biological activity was considered according to size. Details of specific applications and formulations are set forth below. […] SDS indicates Sodium Dodecyl Sulfate. […] Details of specific applications and formulations are set forth below.
In general terms: Agar diffusion results depend on both activity and mobility in agar.

Assay [2] deals with A. niger. The assay can be described thus: culture of the fungi A. niger exposed to disk moistened with formulation (glycerol/SDS base). The format is cell-based, Aspergillus niger. The note with it: under more controlled conditions; 0.5 and 1% formulations. On the procedure: Formulations were further tested against a culture of the fungi A. niger. The fungi was exposed to 1% PCO/1% POH, 1% PCO, and 1% POH formulations. All formulations were prepared in a glycerol/SDS base in water.

In another assay the test system is bacteria, yeast or fungi. The assay can be described thus: general statements on activity against bacteria, yeast or fungi. Type of assay: cell-based. The settings on record: enhancer alone.

Regarding `C=C(C)C1CC=C(C=O)CC1` (stereo not drawn) [PCO, perillyl aldehyde], in the assay on A. niger [1], the “re-growth around the formulation” value is listed as “no growth” and the “activity against A. niger” value is given as “very active”. In addition, the “inhibition of growth of A. niger” value with A. niger [2] was “did inhibit growth”.

Regarding `C=C(C)[C@@H]1CC=C(CO)CC1` [POH, perillyl alcohol, reference compound], in the assay with A. niger [1], the “re-growth around the formulation” value is “re-growth” and the “activity against A. niger” value was “considerable growth”. In addition, in the assay with A. niger [2], the “inhibition of growth of A. niger” value is “did not perform as aggressively”.

Consider `CCCCCCCCCCCCOS(=O)(=O)[O-].[Na+]` [SDS, Sodium Dodecyl Sulfate], for which the “activity against bacterial cells” value in the assay on bacteria, yeast or fungi is “do not provide activity”.

Turning to `CC(O)CO` (stereo not drawn) [propylene glycol], in the assay with bacteria, yeast or fungi, the “activity against bacterial cells” value is reported as “do not provide activity” and the “effect against bacteria, yeast or fungi” value is recorded as “no effect”.
